Source: patent publication US12396949B2, “Technology for improving properties of lipid nanoparticles using lipids in which cis-unsaturated bonds are substituted with a silicon atom” (The Regents of the University of California, priority 2022, dated 2025)
Values joined by “and” are separate entries in the source; they are usually repeats but may differ in a detail not shown here. Equal entries are not always repeated.

Key:
Type in all cases: physicochemical
[1] = Liposome size by intensity, dynamic light scattering (silyl-DOTAP liposomes); conditions: for size (size by intensity, average ± standard deviation): three liposome solutions, thin film hydration/bath sonication, all trials; for size (size by intensity, average ± standard deviation) / size by intensity when excluding large aggregate/outlier: 1 mg/mL in Milli Q water; for size (size by intensity, average ± standard deviation) / size by intensity when excluding large aggregate/outlier / large aggregate/outlier in size by intensity distribution of one trial: DLS; for average LNP size compared with DOTAP: comparison in words; for size by intensity when excluding large aggregate/outlier: outlier trial peak excluded; for large aggregate/outlier in size by intensity distribution of one trial: one of three trials
Description: (§1) FIGS. 8A, 8B, and 8C show the measured size, zeta potential, and RNA encapsulation efficiency (EE) of lipid nanoparticles (LNPs) containing silyl-DOTAP lipids, compared with traditional DOTAP-derived LNPs. The data in FIG. 8A were obtained from three liposome solutions, whereupon the average size was determined using dynamic light scattering (DLS). The data in FIG. 8B were obtained from three liposome solutions, whereupon the average zeta potential was determined using dynamic light scattering (DLS). The data in FIG. 8C represent RNA encapsulation efficiency, determined for each lipid using the Quant-It RiboGreen fluorescence assay.
(§2) FIGS. 8A, 8B, and 8C provide an analysis of size, zeta potential, and RNA encapsulation efficiency (EE) of lipid nanoparticles (LNPs) composed of silyl-DOTAP lipids, compared with traditional DOTAP-derived LNPs. The data in FIG. 8A were obtained from three liposome solutions (1 mg/mL in Milli Q water) for each lipid, which were formed via thin film hydration/bath sonication and the average size by intensity was determined using dynamic light scattering (DLS). The data in FIG. 8B were obtained from three liposome solutions (1 mg/mL in Milli Q water) for each lipid, which were formed via thin film hydration/bath sonication and the average zeta potential was determined using dynamic light scattering (DLS).
(§3) The values shown are the average standard deviation size by intensity, zeta potential, and RNA EE shown in FIGS. 8A to 8C for each lipid. Footnotes: a: One trial corresponds to one liposome solution (1 mg/ml). […] DOTAP is 198 nm and 8SiPh is 183±65 nm when excluding this large aggregate/outlier.

RNA standard = assay: RNA encapsulation efficiency, Quant-It RiboGreen fluorescence assay; conditions: for RNA EE (RNA encapsulation efficiency): RNA-lipid complex 10:1 wt/wt lipid/RNA, 15 min room temperature, three aliquots; for RNA EE compared with DOTAP: comparison in words
Description: as §1
The data in FIG. 8C represent RNA encapsulation efficiency. One RNA-lipid complex solution (10:1 wt/wt lipid/RNA) was formed for each lipid by incubating the silyl liposomes with RNA standard at room temperature for fifteen minutes. The average RNA EE of three aliquots of RNA-lipid complex solution was determined for each lipid using the Quant-It RiboGreen fluorescence assay.
as §3

[2] = Liposome zeta potential, dynamic light scattering (silyl-DOTAP liposomes); conditions: three liposome solutions, 1 mg/mL in Milli Q water, DLS
Description: as §1, §2, §3

[3] = Average size of liposomes made from cationic silyl lipids (Tables 1A, 1B); conditions: Table 1B; sila-DOTMA analog liposomes
Source text: (§4) For colloidal dispersions, zeta potential is a useful measurement of the difference in electrokinetic potential between the dispersion medium and the stationary layer of fluid attached to the dispersed particle. The magnitude of the zeta potential indicates the degree of electrostatic repulsion between adjacent, similarly charged particles in a dispersion. A high zeta potential is an indicator of stability (resistance to aggregation). Both zeta potential and size can be determined using a zeta Potential Analyzer. Clogston J D et al., Methods Mol Biol. 2011; 697:63-70.
(§5) FIGS. 5A to 5C and TABLE 1A provide an illustration of such empirical determination: the effect of the length of the lipid tail, the end group, and the positioning of the silyl group. In this illustration, other properties of the lipid structure and liposome composition were kept constant. The liposome formulations just contained the cationic silyl lipids indicated, and Milli Q™ purified water.
(§6) FIGS. 7A to 7C and TABLE 1B provide another illustration of how structure of the silyl lipid can affect properties of nanoparticles.
(§7) Structural features such as tail length, positioning of the silicon group (n1, n2), and branching (as in 8,Si, (8)3-DOTMA) can influence liposome properties.

[4] = Average zeta potential of liposomes made from cationic silyl lipids (Tables 1A, 1B); conditions: Table 1B; sila-DOTMA analog liposomes; two values given
Source text: as §4, §5, §6, §7

Compound | size (size by intensity, average ± standard deviation) [1] | RNA EE (RNA encapsulation efficiency) (RNA standard) | zeta (average zeta potential ± standard deviation) [2] | RNA EE compared with DOTAP (RNA standard) | Avg size [3] | Avg. zeta Potential [4] | average LNP size compared with DOTAP [1] | size by intensity when excluding large aggregate/outlier [1] | large aggregate/outlier in size by intensity distribution of one trial [1]
C[N+](C)(C)CC(COC(=O)CCCC[Si](C)(C)CCc1ccccc1)OC(=O)CCCC[Si](C)(C)CCc1ccccc1 (stereo not drawn) [5Si2Ph] | 198 nm | 55 ± 4% | 76 ± 2 mV | – | – | – | – | – | –
C[N+](C)(C)CC(COC(=O)CCCC[Si](C)(C)CCCc1ccccc1)OC(=O)CCCC[Si](C)(C)CCCc1ccccc1 (stereo not drawn) [5Si3Ph] | 208 ± 19 nm | 55 ± 3% | 78 ± 3 mV | – | – | – | – | – | –
CCCCCCCC[Si](C)(C)CCCCC(=O)OCC(C[N+](C)(C)C)OC(=O)CCCC[Si](C)(C)CCCCCCCC (stereo not drawn) [5Si8] | 171 ± 26 nm | 74 ± 6% | 63 ± 14 mV | higher EE than DOTAP | – | – | – | – | –
CCCCCCCCCCC[Si](C)(C)CCCCC(=O)OCC(C[N+](C)(C)C)OC(=O)CCCC[Si](C)(C)CCCCCCCCCCC (stereo not drawn) [5Si11] | 225 ± 24 nm | – | 0 mV and 0 ± 0.05 mV | comparable RNA EEs to DOTAP | – | – | – | – | –
C[N+](C)(C)CC(COC(=O)CCCC[Si](C)(C)C1CCCCC1)OC(=O)CCCC[Si](C)(C)C1CCCCC1 (stereo not drawn) [5SiCy] | 169 ± 1 nm | 85 ± 4% | 88 ± 5 mV | higher EE than DOTAP | – | – | – | – | –
C[N+](C)(C)CC(COC(=O)CCCC[Si](C)(C)c1ccccc1)OC(=O)CCCC[Si](C)(C)c1ccccc1 (stereo not drawn) [5SiPh] | 226 ± 75 nm | 88 ± 9% | 77 ± 6 mV | higher EE than DOTAP | – | – | – | – | –
CCCC[Si](C)(C)CCCCCCOCC(C[N+](C)(C)C)OCCCCCC[Si](C)(C)CCCC (stereo not drawn) [6, Si, 4-DOTMA] | – | – | – | – | 79 nm | 65 mV | – | – | –
CCCCCCCC[Si](C)(C)CCCCCCOCC(C[N+](C)(C)C)OCCCCCC[Si](C)(C)CCCCCCCC (stereo not drawn) [6, Si, 8-DOTMA] | – | – | – | – | 216 nm | 64 mV | – | – | –
CCCC[Si](C)(C)CCCCCC(=O)OCC(C[N+](C)(C)C)OC(=O)CCCCC[Si](C)(C)CCCC (stereo not drawn) [6Si4] | 372 ± 93 nm | 41 ± 6% | 91 ± 9 mV | – | – | – | noticeably larger average sizes than DOTAP | – | –
C[N+](C)(C)CC(COC(=O)CCCCC[Si](C)(C)C1CCCCC1)OC(=O)CCCCC[Si](C)(C)C1CCCCC1 (stereo not drawn) [6SiCy] | 188 ± 16 nm | 23 ± 0.2% | 77 ± 5 mV | – | – | – | – | – | –
C[N+](C)(C)CC(COC(=O)CCCCC[Si](C)(C)c1ccccc1)OC(=O)CCCCC[Si](C)(C)c1ccccc1 (stereo not drawn) [6SiPh] | 448 ± 110 nm | 76 ± 1% | 81 ± 3 mV | higher EE than DOTAP | – | – | noticeably larger average sizes than DOTAP | – | –
CCCCCCCCC[Si](C)(C)CCCCCCC(=O)OCC(C[N+](C)(C)C)OC(=O)CCCCCC[Si](C)(C)CCCCCCCCC (stereo not drawn) [7Si9] | 221 ± 40 nm | 59 ± 1% | 73 ± 4 mV | – | – | – | – | – | –
CCCCCCCC[Si](C)(C)CCCCCCCCOCC(C[N+](C)(C)C)OCCCCCCCC[Si](C)(C)CCCCCCCC (stereo not drawn) [8, Si, 8-DOTMA] | – | – | – | – | 206 nm | 56 mV and 74 mV | – | – | –
CCCCCCCC[Si](CCCCCCCC)(CCCCCCCC)CCCCCCCCOCC(C[N+](C)(C)C)OCCCCCCCC[Si](CCCCCCCC)(CCCCCCCC)CCCCCCCC (stereo not drawn) [8, Si, (8)3-DOTMA] | – | – | – | – | 184 nm | 64 mV | – | – | –
C[N+](C)(C)CC(COCCCCCCCC[Si](C)(C)c1ccccc1)OCCCCCCCC[Si](C)(C)c1ccccc1 (stereo not drawn) [8, Si, Ph-DOTMA] | – | – | – | – | 215 nm | 62 mV | – | – | –
C[N+](C)(C)CC(COC(=O)CCCCCCC[Si](C)(C)CCc1ccccc1)OC(=O)CCCCCCC[Si](C)(C)CCc1ccccc1 (stereo not drawn) [8Si2Ph] | 275 ± 82 nm | 56 ± 10% | 61 ± 12 mV | – | – | – | – | – | –
C[N+](C)(C)CC(COC(=O)CCCCCCC[Si](C)(C)CCCc1ccccc1)OC(=O)CCCCCCC[Si](C)(C)CCCc1ccccc1 (stereo not drawn) [8Si3Ph] | 106 ± 35 nm | 53 ± 8% | 91 ± 6 mV | – | – | – | – | – | –
CCCC[Si](C)(C)CCCCCCCC(=O)OCC(C[N+](C)(C)C)OC(=O)CCCCCCC[Si](C)(C)CCCC (stereo not drawn) [8Si4] | 198 nm | 44 ± 7% | 70 ± 2 mV | – | – | – | – | – | –
CCCCCC[Si](C)(C)CCCCCCCC(=O)OCC(C[N+](C)(C)C)OC(=O)CCCCCCC[Si](C)(C)CCCCCC (stereo not drawn) [8Si6] | 164 ± 36 nm | 48 ± 1% | 84 ± 5 mV | – | – | – | – | – | –
CCCCCCCC[Si](C)(C)CCCCCCCC(=O)OCC(C[N+](C)(C)C)OC(=O)CCCCCCC[Si](C)(C)CCCCCCCC (stereo not drawn) [8Si8] | 221 ± 40 nm | 50 ± 7% | 73 ± 15 mV | comparable RNA EEs to DOTAP | – | – | – | – | –
C[N+](C)(C)CC(COC(=O)CCCCCCC[Si](C)(C)C1CCCCC1)OC(=O)CCCCCCC[Si](C)(C)C1CCCCC1 (stereo not drawn) [8SiCy] | 199 ± 30 nm | 49 ± 4% | 70 ± 3 mV | – | – | – | – | – | –
C[N+](C)(C)CC(COC(=O)CCCCCCC[Si](C)(C)c1ccccc1)OC(=O)CCCCCCC[Si](C)(C)c1ccccc1 (stereo not drawn) [8SiPh] | 397 ± 322 nm | 36 ± 5% | 75 ± 6 mV | – | – | – | – | 183±65 nm | 1406 nm
CCCCCCCC/C=C\CCCCCCCC(=O)OCC(C[N+](C)(C)C)OC(=O)CCCCCCC/C=C\CCCCCCCC.[Cl-] (stereo not drawn) [DOTAP, N-(1-(2,3-dioleoyloxy)propyl)-N,N,N-trimethylammonium chloride, reference compound] | 314 ± 201 nm | 65 ± 2% | 34 ± 5 mV | – | – | – | – | 198 nm | 838.3 nm
